Measurements as given in EP0900210B1, “ANTIVIRALLY ACTIVE HETEROCYCLIC AZAHEXANE DERIVATIVES” (Novartis AG, priority 1996, dated 1997).
Like-named read-outs stand apart in the source and are kept apart here.

Legend:
HIV-1-protease = target: T1, HIV-1-protease (Human immunodeficiency virus type 1 group M subtype B, UniProt P04585); test: Inhibition of HIV-1-protease with icosapeptide substrate […] (HPLC); assay type: biochemical
T1 construct: made in house
Protocol: The inhibitory action of the compounds of formula I on the proteolytic activity of HIV-1-protease can be shown, for example, according to known procedures (see A. D. Richards et al., J. Biol. Chem. 265(14), 7733-7736 (1990)). In that method the inhibition of the action of HIV-1-protease (preparation: see S. Billich et al., J. Biol. Chem. 263(34), 17905-17908 (1990)) is measured in the presence of the icosapeptide […] (a synthetic substrate of HIV-1-protease, prepared by peptide synthesis in accordance with known procedures (see J. Schneider et al., Cell 54, 363-368 (1988)), which contains as substrate analogue one of the cleavage sites of the gag-precursor protein (natural substrate of HIV-1-protease). That substrate and its cleavage products are analysed by high performance liquid chromatography (HPLC).
The test compound is dissolved in dimethyl sulfoxide. The enzymatic test is carried out by adding suitable dilutions of the inhibitor in 20 mM β-morpholinoethanesulfonic acid (MES) buffer pH 6.0 to the test mixture. That mixture consists of the above-mentioned icosapeptide (122 µM) in 20 mM MES-buffer pH 6.0. 100 µl are used per test batch. The reaction is started by the addition of […] of HIV-1-protease solution and is stopped after one hour's incubation at 37°C by the addition of 10 µl of 0.3M HClO4. After centrifugation of the sample at 10 000 x g for 5 minutes, 20 µl of the resulting supernatant are applied to a 125 x 4.6 mm Nucleosil® C18-5m-HPLC column (reversed-phase material supplied by Macherey & Nagel, Düren, FRG, based on silica gel that has been charged with C18alkyl chains). The uncleaved icosapeptide and its cleavage products are eluted from the column by means of the following gradient: 100 % eluant 1 → 50 % eluant 1 + 50 % eluant 2 (eluant 1: 10 % acetonitrile, 90 % H2O, 0.1 % trifluoroacetic acid (TFA); eluant 2: 75 % acetonitrile, 25 % H2O, 0.08 % TFA) for 15 minutes, throughflow rate 1 ml/min. The quantification of the eluted peptide fragments is carried out by measuring the peak height of the cleavage product at 215 nm.
Using the test system described above with the icosapeptide […], the IC50 values given below are obtained for the following Examples: […]

HIV-1/MN = test: Protection of MT-2 cells against HIV infection (reverse transcriptase activity in supernatant); assay type: cell-based; conditions: Human immunodeficiency virus 1, MT2, 96 h; read-out: ED90 (the source's name)
Protocol: For this test, MT-2-cells infected with HIV-1/MN are used. MT-2-cells have been transformed with HTLV-1 (a virus causing leukaemia) and a continuous producer thereof; they are therefore especially sensitive to the cytopathogenic effect of HIV. MT-2-cells can be obtained via the AIDS Research and Reference Reagent Program, Division of AIDS, NIAID, NIH from Dr. Douglas Richman (see J. Biol. Chem. 263, 5870-5875 (1988) and also Science 229, 563-566 1985)). The MT-2-cells are cultured in RPMI 1640-medium (Gibco, Scotland; RPMI comprises an amino acid mixture without glutamine) supplemented with 10% heat-inactivated foetal calf serum, glutamine and standard antibiotics. In all cases the cells, and also the virus stock solution used for the infection (HIV-1/MN), are free of mycoplasms. […] The titre of the HIV-1/MN virus stock solution (determined by titration onto MT-2-cells) is 4.2 x 10^5 TCID50/ml (TCID50 = Tissue Culture Infective Dose = dose that infects 50 % of the MT-2-cells). […] Prior to the test, 0.1 % (v/v) [alpha-^32P]dTTP is added to aliquots of the solution in order to establish a radioactivity of 10 µCi/ml.
After mixing, the plate is incubated for 2 hours at 37°C. […] The radioactivity on the filters is measured in a Matrix Packard 96-well counter (Packard, Zürich, Switzerland). […]

[1] = Pharmacokinetics: plasma level in mice after oral administration; assay type: in vivo, female BALB/c mice; conditions: mouse, oral administration of 120 mg/kg
Protocol: The blood is centrifuged (12 000 x g, 5 min) and the plasma removed.
The flow rate is 1 ml/min.

[2] = tested on: HIV-1 (infectious clone pNL4-3); test: Transient DNA transfection assay in HeLaT4 cells, in vitro potency; assay type: cell-based; conditions: Human immunodeficiency virus 1, HeLaT4
From the text: (§1) By way of PCR-supported mutagenesis and cloning, HIV-1 protease mutants are generated that are based on the infectious clone pNL4-3 (freely available via the "NIH AIDS reference and reagent program", the original reference is A. Adachi et al. J. Virol (1986) 59, 284-91 - but it can, of course, be any other HIV clone, or even clinical material, provided that comparability is ensured). […] The cloned fragments are, for example, only 500 base pairs in length, all of the remainder being unchanged. By using mutations in always the same clone, direct comparability is ensured, which would not be the case in a direct comparison of clinical samples or of different HIV clones. […] That system is used as a transient DNA transfection system for tests: • 1) in order to identify possible cross-resistances of protease variants to several protease inhibitors; and • 2) in order to establish the potency and resistance profile of novel inhibitor candidates.
(§2) Instead of the strains mentioned, there may be used any human T4-positive cells, such as the HeLa T4 cells, deposited under that name by Richard Axel and Paul Maddon in "NIH AIDS reference and reagent program" and obtainable via that source.

451/76F strain = 451/76F strain established against Lasinavir; comparison with saquinavir, indinavir, ritonavir
From the text: as §1, §2

46I/47V/50V (VX478) = test: Transient DNA transfection assay in HeLaT4 cells, other resistant strains; assay type: cell-based, HIV-1; conditions: 10nM; strains e.g. 46I/47V/50V (VX478); not quantified
From the text: as §1, §2

[3] = icosapeptide […] 122 µM, 20 mM MES pH 6.0, one hour at 37°C, read-out: IC50

## COC(=O)N[C@H](C(=O)N[C@@H](Cc1ccccc1)[C@@H](O)CN(Cc1ccc(-c2cnccn2)cc1)NC(=O)[C@@H](NC(=O)OC)C(C)(C)C)C(C)C [Example 42, 1-[4-(Pyrazin-2-yl)-phenyl]-4(S)-hydroxy-2-[N-(N-methoxycarbonyl-(L)-tert-leucyl)amino]-5(S)-[N-(N-methoxycarbonyl-(L)-valyl)amino]-6-phenyl-2-azahexane]
HIV-1-protease; [3]
  IC50: 15 nM

## CC[C@H](C)[C@H](NC(=O)OC)C(=O)N[C@@H](Cc1ccccc1)[C@@H](O)CN(Cc1ccc(-c2cnccn2)cc1)NC(=O)[C@@H](NC(=O)OC)[C@@H](C)CC [Example 43, 1-[4-(Pyrazin-2-yl)-phenyl]-4(S)-hydroxy-5(S)-2,5-bis[N-(N-methoxycarbonyl-(L)-iso-leucyl)amino]-6-phenyl-2-azahexane]
HIV-1-protease; [3]
  IC50: 37 nM

## COC(=O)N[C@H](C(=O)N[C@@H](Cc1ccccc1)[C@@H](O)CN(Cc1ccc(-c2cccs2)cc1)NC(=O)[C@@H](NC(=O)OC)C(C)C)C(C)C [Example 45, 1-[4-(Thiophen-2-yl)-phenyl]-4(S)-hydroxy-5(S)-2,5-bis[N-(N-methoxycarbonyl-(L)-valyl)amino]-6-phenyl-2-azahexane]
HIV-1-protease; [3]
  IC50: 12 nM

## COC(=O)N[C@H](C(=O)N[C@@H](Cc1ccccc1)[C@@H](O)CN(Cc1ccc(-c2ccccn2)cc1)NC(=O)[C@@H](NC(=O)OC)C(C)(C)C)C(C)(C)C [Example 46, 1-[4-(Pyridin-2-yl)-phenyl]-4(S)-hydroxy-5(S)-2,5-bis[N-(N-methoxycarbonyl-(L)-tert-leucyl)amino]-6-phenyl-2-azahexane]
HIV-1-protease; [3]
  IC50: 26 nM
HIV-1/MN
  EC90: 3 nM
[1]; 30 min after administration
  concentration at 0.5 h: 21.8 µM
[1]; 90 min after administration
  concentration at 1.5 h: 31.8 µM
[2]
  IC90: < 30 nM
451/76F strain
  activity against a resistant variant: comparable with saquinavir and better than that of indinavir
46I/47V/50V (VX478)
  activity compared with other strains: more potent (not quantified) than that of saquinavir, ritonavir and indinavir

## CC[C@H](C)[C@H](NC(=O)OC)C(=O)N[C@@H](Cc1ccccc1)[C@@H](O)CN(Cc1ccc(-c2ccccn2)cc1)NC(=O)[C@@H](NC(=O)OC)[C@@H](C)CC [Example 47, [4-(Pyridin-2-yl)-phenyl]-4(S)-hydroxy-5(S)-2,5-bis[N-(N-methoxycarbonyl-(L)-iso-leucyl)amino]-6-phenyl-2-azahexane]
HIV-1-protease; [3]
  IC50: 40 nM

## COC(=O)N[C@H](C(=O)NN(Cc1ccc(-c2ccccn2)cc1)C[C@H](O)[C@H](Cc1ccccc1)NC(=O)[C@@H](NC(=O)OC)C(C)(C)C)C(C)C [Example 48, 1-[4-(Pyridin-2-yl)-phenyl]-4(S)-hydroxy-2-N-(N-methoxy-carbonyl-(L)-valyl)amino-5(S)-N-(N-methoxycarbonyl-(L)-tert-leucyl)amino-6-phenyl-2-azahexane]
HIV-1-protease; [3]
  IC50: 31 nM

## COC(=O)N[C@H](C(=O)N[C@@H](Cc1ccccc1)[C@@H](O)CN(Cc1ccc(-c2ccccn2)cc1)NC(=O)[C@@H](NC(=O)OC)C(C)(C)C)C(C)C [Example 49, 1-[4-(Pyridin-2-yl)-phenyl]-4(S)-hydroxy-2-N-(N-methoxy-carbonyl-(L)-tert-leucyl)amino-5(S)-N-(N-methoxycarbonyl-(L)-valyl)amino-6-phenyl-2-azahexane]
HIV-1-protease
  IC50: 20 nM

## CC[C@H](C)[C@H](NC(=O)OC)C(=O)N[C@@H](Cc1ccccc1)[C@@H](O)CN(Cc1ccc(-c2ccccn2)cc1)NC(=O)[C@@H](NC(=O)OC)C(C)C [Example 50, 1-[4-(Pyridin-2-yl)-phenyl]-4(S)-hydroxy-2-N-(N-methoxy-carbonyl-(L)-valyl)amino-5(S)-N-(N-methoxycarbonyl-(L)-iso-leucyl)amino-6-phenyl-2-azahexane]
HIV-1-protease
  IC50: 28 nM

## CC[C@H](C)[C@H](NC(=O)OC)C(=O)NN(Cc1ccc(-c2ccccn2)cc1)C[C@H](O)[C@H](Cc1ccccc1)NC(=O)[C@@H](NC(=O)OC)C(C)C [Example 51, 1-[4-(Pyridin-2-yl)-phenyl]-4(S)-hydroxy-2-N-(N-methoxy-carbonyl-(L)-iso-leucyl)amino-5(S)-N-(N-methoxycarbonyl-(L)-valyl)amino-6-phenyl-2-azahexane]
HIV-1-protease
  IC50: 34 nM

## CCOC(=O)N[C@H](C(=O)NN(Cc1ccc(-c2ccccn2)cc1)C[C@H](O)[C@H](Cc1ccccc1)NC(=O)[C@@H](NC(=O)OC)C(C)C)C(C)C [Example 52, 1-[4-(Pyridin-2-yl)-phenyl]-4(S)-hydroxy-2-N-(N-ethoxy-carbonyl-(L)-valyl)-amino-5(S)-N-(N-methoxycarbonyl-(L)-valyl)amino-6-phenyl-2-azahexane]
HIV-1-protease; [3]
  IC50: 34 nM
